Test results reported in publication PMC8658016, “Identification of New Compounds with Anticonvulsant and Antinociceptive Properties in a Group of 3-substituted (2,5-dioxo-pyrrolidin-1-yl)(phenyl)-Acetamides” (International Journal of Molecular Sciences, 2021).

Assays:
mice = assay: 6 Hz (44 mA) seizure test, model of drug-resistant epilepsy; type: in vivo; settings: Mus musculus, ip; mice i.p.; 95% confidence interval in parentheses
rats = assay: Carrageenan-induced paw edema; type: in vivo, rat; settings: 80 mg/kg
Excerpt: To test the anti-inflammatory activity and the potential to attenuate inflammatory pain, we tested compound 14 in the model of carrageenan-induced aseptic inflammation. In this model, the subplantar injection of carrageenan induced an edema, mechanical, and thermal hyperalgesia. […] In our opinion, the most surprising and interesting was the long-lasting anti-edematous effect. It may result from the pharmacokinetic properties of compound 14, but also from its unique mechanism. Since inflammation is one of the critical components of neuropathy, the anti-inflammatory activity of compound 14 may be a valuable and distinctive property from classical ASDs used to treat neuropathic pain [33]. […] The pain threshold reached 87.3%, 90.9%, and 89.7% of its initial value 3, 6, and 24 h after carrageenan injection, respectively. […] The initial latency for compound 14-treated animals was 8.95 ± 0.4 s. The administration of compound 14 changed the values to 127.0%, 102.0%, 79.8%, 83.8%, and 164.4% of the initial value 1, 2, 3, 6-, and 24-h following carrageenan injection, respectively.
The experiments were conducted on adult male Albino Swiss mice (CD-1, 18–25 g) and male Wistar rats (Krf:(WI) WU), 180–250 g) as described previously. The minimum number of animals used needed to obtain definite and normally distributed results with the utilized test. Behavioral measures were scored by trained observers, which were blind to experimental conditions. The following devices were used in the experiments: Analgesy Meter (37215, Ugo Basile), Plantar Test Apparatus (EFV5, Commat Ltd., Turkey), Plethysmometer (Plethysmometer 7140, Ugo Basile), Electronic von Frey unit (BIOSEB, France). All procedures were performed according to the European Union Directive of 22 September 2010 (2010/63/EU) and approved by the Local Ethics Committee for Experiments on Animals in Krakow, Poland (resolution no. 105/2016).
Figure 8 Effect of compound 14 on carrageenan-induced oedema (A), mechanical hyperalgesia (B), and thermal hyperalgesia (C), developed after subplantar injection of 1% carrageenan in rats. Data are expressed as means ± S.E.M. for 6 animals; 0—the initial value considered as the paw volume (A) or nociceptive reaction (B,C) before carrageenan administration. Statistical significance compared to vehicle-treated animals (control): * p < 0.05, ** p < 0.01, *** p < 0.001, **** p < 0.0001. Statistical analysis: two-way ANOVA post hoc Bonferroni test. Statistical significance in different time points of control group: ^# p < 0.05, ^## p < 0.01, ^### p < 0.001. Statistical analysis: one-way ANOVA, followed by Dunnett’s multiple comparison test (GraphPad Prism 8.0.1).

[1] = system: fast voltage-gated sodium currents in rat prefrontal cortex pyramidal neurons; assay: Patch-clamp, fast voltage-gated sodium currents; type: cell-based
Excerpt: Consequently, we determined the influence of compound 14 on the fast activating and fast inactivating voltage-gated sodium currents in rat prefrontal cortex pyramidal neurons using the patch-clamp technique. Maximal currents were evoked by rectangular voltage steps to 0 mV from a physiological holding potential of -65 mV. After recording a stable control, compound 14 was applied to the whole bath for three minutes. […] Therefore, it was very likely that the potent inhibition of sodium currents by compound 14 similar to compound II was one of the mechanisms providing a similar level of anticonvulsant activity. Moreover, the influence of several additional concentrations of compound 14 on voltage-gated sodium currents were tested to confirm the dose–response relationship. In sum, the following concentrations were applied; 0.01 µM, 0.1 µM, 1 µM, 10 µM, and the results obtained were as follows: 0.95 ± 0.05 (p > 0.05, n = 5), 0.84 ± 0.03 (p < 0.05, n = 5), 0.82 ± 0.05 (p < 0.01, n = 5), and 0.77 ± 0.02 (p < 0.01, n = 5), respectively (Figure 9D, currents were normalized to control currents). It is worthy of note that the significant inhibitory effect was observed starting from the concentration of 0.1 µM, whereas no activity was detected at 0.01 µM. Furthermore, a clear dose–response relationship was visible. All the aforementioned results certainly supporting the inhibition of fast voltage-gated sodium currents, seemed to be crucial for the antiseizure activity of compound 14. The methodology of slice preparation, slice preincubation, and patch-clamp technique was the same as in our previous study. In this study, however, we used different recording solutions. The composition of pipette solution was (in mM) CsF (110), NaCl (7), EGTA (3), HEPES-Cl (10), MgCl2 (2), and Na2ATP (4) at pH 7,4. The composition of extracellular solution was (in mM) NaCl (30), choline chloride (90), TEA-Cl (30), CaCl2 (2), MgCl2 (2), glucose (15), HEPES (10), LaCl3 (0.001), and CdCl2 (0.4) at pH 7.4. Compound 14 was tested at concentration of 1 µM.  Figure 9 The influence of compound 14 on fast, voltage-gated sodium current. (A) The influence of tested compound on sodium current is shown on an example neuron. Current traces were evoked once every ten seconds by a rectangular voltage step. […] (B) Example sodium current recordings in control (black trace), after application of compound 14 (1 µM) (blue trace) and after wash-out (red trace). (C) Averaged normalized maximal current amplitudes in control, in the presence of compound 14 (1 µM) and after wash-out. (D) Averaged normalized maximal current amplitudes in control and in the presence of different concentrations of compound 14 (0.01 µM, 0.1 µM, 1 µM, and 10 µM). Statistical significance was analyzed by Graph Pad Prism 8.0.1 software using Tukey post hoc test (C) and Students’ t-test (D). Statistical significance-compared control: * p < 0.05, ** p < 0.01.

SH-SY5Y viability (MTS) = type: cell-based; settings: human, neuroblastoma SH-SY5Y cells
in vivo = settings: male, CD-1, mouse, ip

In the case of `CN(C)C1CC(=O)N(C(C(=O)N2CCN(c3cccc(C(F)(F)F)c3)CC2)c2ccccc2)C1=O.Cl` (stereo not drawn) [Compound 14, 3-(Dimethylamino)-1-(2-oxo-1-phenyl-2-(4-(3-(trifluoromethyl)phenyl)-piperazin-1-yl)ethyl)pyrrolidine-2,5-dione hydrochloride], the ED50 (mice) is reported as 63.2 mg/kg, the “reduction of paw edema” value (rats; 1 h after carrageenan) is reported as 36.8% and the “reduction of paw edema” value (rats; 2 h after carrageenan) is reported as 55.8%. The “reduction of paw edema” value (rats; 3 h after carrageenan) was 62.9%, the “reduction of paw edema” value (rats; 6 h after carrageenan) was 68.6% and the “reduction of paw edema” value (rats; 24 h after carrageenan) was 74.3%. For the same molecule, the “maximal sodium current amplitude normalized to control (1.0)” value ([1]; 0.01 µM, p > 0.05, n = 5) was 0.95 ± 0.05, the “maximal sodium current amplitude normalized to control (1.0)” value ([1]; 0.1 µM, p < 0.05, n = 5) was 0.84 ± 0.03 and the “maximal sodium current amplitude normalized to control (1.0)” value ([1]; 1 µM, p < 0.01, n = 5) was 0.82 ± 0.05. The “maximal sodium current amplitude normalized to control (1.0)” value ([1]; 10 µM, p < 0.01, n = 5) was 0.77 ± 0.02, the “maximal sodium current amplitude normalized to control, after drug wash-out” value ([1]; after application of 1 µM) was 0.92 ± 0.02 and the viability at 72 h, 0.001 µM (SH-SY5Y viability (MTS); 0.001 µM, read-out: SH-SY5Y cell viability, % of the control) was ≤ 120%. It also gave a viability at 72 h, 10 µM (SH-SY5Y viability (MTS); 10 µM, read-out: SH-SY5Y cell viability, % of control) of 140%, a melting point of 157.8 to 159.2 °C and a TD50 (in vivo) of 169 mg/kg.
